Test results published in ChEMBL document CHEMBL1201862, “PubChem BioAssay data set” (2004).
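Five concentrations, 48 hours, 96-well plates. Abbreviation: GI50, concentration required for 50% inhibition of growth.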 Activity calls are given as the source filed them. No stated cut-off is given here; in the data, active = GI50 up to about 1.1 µM and inactive = higher.

What was measured:
Test in all cases: NCI anticancer screen, dose series, 48 h
RXF 393 = system: RXF 393
OVCAR-5 = system: OVCAR-5
HT-29 = system: HT-29
HL-60 = system: HL-60
786-0 = system: 786-0
KM12 = system: KM12
ACHN = system: ACHN
OVCAR-4 = system: OVCAR-4
XF498 = system: XF498
M14 = system: M14
K562 = system: K562
SF-539 = system: SF-539
OVCAR-3 = system: OVCAR-3
CCRF-CEM = system: CCRF-CEM
UACC-62 = system: UACC-62
SF-295 = system: SF-295
U-251 = system: U-251
TK-10 = system: TK-10
HCT-15 = system: HCT-15
MDA-MB-231 = system: MDA-MB-231

Row | SMILES | GI50 (RXF 393) | GI50 (OVCAR-5) | GI50 (HT-29) | GI50 (HL-60) | GI50 (786-0) | GI50 (KM12) | GI50 (ACHN) | GI50 (OVCAR-4) | GI50 (XF498) | GI50 (M14) | GI50 (K562) | GI50 (SF-539) | GI50 (OVCAR-3) | GI50 (CCRF-CEM) | GI50 (UACC-62) | GI50 (SF-295) | GI50 (U-251) | GI50 (TK-10) | GI50 (HCT-15) [µM] | GI50 (MDA-MB-231)
1 | [O-][S+]1CSSC1 | 19.9 µM (inactive) | 16.8 µM (inactive) | 7.64 µM (inactive) | 2.56 µM (inactive) | 20.7 µM (inactive) | 13.9 µM (inactive) | 25.1 µM (inactive) | 16.7 µM (inactive) | 15.7 µM (inactive) | 22.5 µM (inactive) | 3.07 µM (inactive) | 19.7 µM (inactive) | 17.9 µM (inactive) | 4.42 µM (inactive) | 10.4 µM (inactive) | 20.7 µM (inactive) | 18.7 µM (inactive) | 23.7 µM (inactive) | – | –
2 | CC1=C(/C=C/C2=CC(=C\C(=O)O)/CC(C3=C(C)CCCC3(C)C)C2)C(C)(C)CCC1 (stereo not given) | 10.8 µM (inactive) | 16.4 µM (inactive) | 13.6 µM (inactive) | – | 14.8 µM (inactive) | 11.9 µM (inactive) | 10.4 µM (inactive) | 13.7 µM (inactive) | 14.4 µM (inactive) | 14.8 µM (inactive) | – | 16.8 µM (inactive) | 14 µM (inactive) | – | 10.9 µM (inactive) | 10.1 µM (inactive) | 11.1 µM (inactive) | 13.5 µM (inactive) | – | –
3 | O=C(/C=C/c1ccc(Cl)c(Cl)c1)c1ccccc1Cl | 17.2 µM (inactive) | 16.8 µM (inactive) | 6.07 µM (inactive) | 6.61 µM (inactive) | 5.32 µM (inactive) | 8.13 µM (inactive) | 15.3 µM (inactive) | 14.1 µM (inactive) | 19.2 µM (inactive) | 6.24 µM (inactive) | 7.16 µM (inactive) | 3.63 µM (inactive) | 9.27 µM (inactive) | 6.67 µM (inactive) | 12.8 µM (inactive) | 13.7 µM (inactive) | 5.64 µM (inactive) | 21.6 µM (inactive) | 5.45 | –
4 | O=C1NC(=S)NC(=O)C1=Cc1ccc([N+](=O)[O-])o1 | 19.3 µM (inactive) | 20.3 µM (inactive) | 23.2 µM (inactive) | 27.1 µM (inactive) | 19.3 µM (inactive) | 46.6 µM (inactive) | 18.4 µM (inactive) | 17.3 µM (inactive) | 31.6 µM (inactive) | 15.7 µM (inactive) | 23.9 µM (inactive) | 22.9 µM (inactive) | – | 23.9 µM (inactive) | 19.4 µM (inactive) | 78.3 µM (inactive) | > 100 µM (inactive) | 61 µM (inactive) | 17 | –
5 | COc1ccc(-c2oc3c(OC)c(OC)c(OC)c(O)c3c(=O)c2OC)cc1O | 0.0559 µM (active) | 5.4 µM (inactive) | 8.87 µM (inactive) | < 0.01 µM (active) | 0.446 µM (active) | 0.556 µM (active) | 0.0656 µM (active) | 9.23 µM (inactive) | 0.279 µM (active) | 0.0592 µM (active) | < 0.01 µM (active) | 0.0327 µM (active) | 0.0632 µM (active) | 0.0135 µM (active) | 0.0481 µM (active) | 0.478 µM (active) | 0.242 µM (active) | 2.42 µM (inactive) | 0.35 | –
6 | C/C(=C\Cc1cc(O)ccc1O)CCc1c(C)cc(O)c(C=O)c1C [PANICEIN B3] | 15.9 µM (inactive) | – | 20.4 µM (inactive) | 34.6 µM (inactive) | 25.5 µM (inactive) | 32.3 µM (inactive) | 17.5 µM (inactive) | 26.4 µM (inactive) | 18.8 µM (inactive) | 23.5 µM (inactive) | > 100 µM (inactive) | 18.5 µM (inactive) | 24.9 µM (inactive) | – | – | 27 µM (inactive) | 19.5 µM (inactive) | 34.8 µM (inactive) | 27.4 | –
7 | O=C1CC(c2ccccc2)=Nc2ccccc2N1 | > 100 µM (inactive) | > 100 µM (inactive) | > 100 µM (inactive) | 34.5 µM (inactive) | > 100 µM (inactive) | > 100 µM (inactive) | > 100 µM (inactive) | > 100 µM (inactive) | > 100 µM (inactive) | > 100 µM (inactive) | > 100 µM (inactive) | > 100 µM (inactive) | > 100 µM (inactive) | 65 µM (inactive) | > 100 µM (inactive) | > 100 µM (inactive) | > 100 µM (inactive) | > 100 µM (inactive) | > 100 | –
8 | COc1cc2c3cc1Oc1c(OC)c(OC)cc4c1[C@@H](Cc1ccc(O)c(c1)Oc1ccc(cc1)C[C@@H]3N(C)CC2)N(C)CC4.c1ccccc1 | 12.4 µM (inactive) | 30.6 µM (inactive) | 10.7 µM (inactive) | 10.2 µM (inactive) | 12.8 µM (inactive) | 10.9 µM (inactive) | 17.3 µM (inactive) | – | 11.4 µM (inactive) | 4.61 µM (inactive) | 8.69 µM (inactive) | 3.71 µM (inactive) | 14.4 µM (inactive) | 17.5 µM (inactive) | 16 µM (inactive) | 16.4 µM (inactive) | 10.1 µM (inactive) | 17.8 µM (inactive) | 12.3 | –
9 | O=C1CC(CC(=O)C2CCCCC2=O)C(=O)N1 (stereo not given) | > 100 µM (inactive) | > 100 µM (inactive) | > 100 µM (inactive) | > 100 µM (inactive) | > 100 µM (inactive) | > 100 µM (inactive) | > 100 µM (inactive) | > 100 µM (inactive) | > 100 µM (inactive) | > 100 µM (inactive) | > 100 µM (inactive) | > 100 µM (inactive) | > 100 µM (inactive) | > 100 µM (inactive) | > 100 µM (inactive) | > 100 µM (inactive) | > 100 µM (inactive) | > 100 µM (inactive) | – | –
10 | C[C@H](CCC(=O)O)[C@H]1CC[C@@]2(C)[C@@H]3C(=O)C[C@H]4C(C)(C)[C@@H](O)CC[C@]4(C)[C@H]3C(=O)C[C@]12C | > 100 µM (inactive) | > 100 µM (inactive) | > 100 µM (inactive) | 25.1 µM (inactive) | > 100 µM (inactive) | > 100 µM (inactive) | > 100 µM (inactive) | > 100 µM (inactive) | – | > 100 µM (inactive) | > 100 µM (inactive) | > 100 µM (inactive) | > 100 µM (inactive) | > 100 µM (inactive) | > 100 µM (inactive) | > 100 µM (inactive) | > 100 µM (inactive) | > 100 µM (inactive) | > 100 | > 100 µM (inactive)
11 | Cn1c(=O)cc(NNc2ccccc2)[nH]c1=O | 18 µM (inactive) | 85.5 µM (inactive) | 15.7 µM (inactive) | 26.7 µM (inactive) | 16.2 µM (inactive) | 26.3 µM (inactive) | 36.4 µM (inactive) | > 100 µM (inactive) | – | 29.9 µM (inactive) | 38.2 µM (inactive) | > 100 µM (inactive) | 16.7 µM (inactive) | 34.1 µM (inactive) | 59.4 µM (inactive) | > 100 µM (inactive) | 17.8 µM (inactive) | 30.3 µM (inactive) | 16.4 | 18.7 µM (inactive)
12 | CC1C(C#N)(C#N)C(C#N)=C(N)C1(C)[N+](=O)[O-] (stereo not given) | 43.1 µM (inactive) | > 100 µM (inactive) | 26.2 µM (inactive) | 29.8 µM (inactive) | 56 µM (inactive) | > 100 µM (inactive) | 87.5 µM (inactive) | 47.4 µM (inactive) | – | > 100 µM (inactive) | 29.9 µM (inactive) | 31.5 µM (inactive) | 67.9 µM (inactive) | 32.4 µM (inactive) | 50.4 µM (inactive) | > 100 µM (inactive) | 48 µM (inactive) | > 100 µM (inactive) | 33.7 | > 100 µM (inactive)
13 | CCOC(=O)/C(=C/c1cc(OC)ccc1OC)CC(=O)O | > 100 µM (inactive) | – | > 94.4 µM (inactive) | > 31.6 µM (inactive) | > 31.6 µM (inactive) | > 100 µM (inactive) | > 100 µM (inactive) | > 100 µM (inactive) | > 39.3 µM (inactive) | > 100 µM (inactive) | > 31.6 µM (inactive) | > 100 µM (inactive) | > 100 µM (inactive) | > 31.6 µM (inactive) | > 100 µM (inactive) | > 100 µM (inactive) | > 100 µM (inactive) | > 100 µM (inactive) | > 43.7 | –
14 | CC(CC[C@@]1(O)OC2C[C@H]3[C@@H]4CC[C@H]5CC(OC6OC(CO)C(OC7OC(CO)C(O)C(OC8OCC(O)C(O)C8O)C7OC7OC(CO)C(O)C(O)C7O)C(O)C6O)[C@H](O)CC5(C)[C@H]4CCC3(C)C2[C@@H]1C)COC1OC(CO)C(O)C(O)C1O (stereo not given in full) | 4.28 µM (inactive) | 11.7 µM (inactive) | 11 µM (inactive) | 6.9 µM (inactive) | 3.43 µM (inactive) | 15.3 µM (inactive) | 2.09 µM (inactive) | 9.79 µM (inactive) | – | 25 µM (inactive) | 16.6 µM (inactive) | 3.73 µM (inactive) | 3.46 µM (inactive) | 3.26 µM (inactive) | 16.4 µM (inactive) | 4.24 µM (inactive) | 15.5 µM (inactive) | 2.39 µM (inactive) | 20.9 | 25.9 µM (inactive)
15 | c1cc(N(CCn2cccn2)CCn2cccn2)cc(N(CCn2cccn2)CCn2cccn2)c1 | > 100 µM (inactive) | – | – | > 100 µM (inactive) | > 100 µM (inactive) | > 100 µM (inactive) | > 100 µM (inactive) | > 100 µM (inactive) | 77.6 µM (inactive) | > 100 µM (inactive) | > 100 µM (inactive) | – | > 100 µM (inactive) | > 100 µM (inactive) | > 100 µM (inactive) | > 100 µM (inactive) | > 100 µM (inactive) | > 100 µM (inactive) | > 100 | –
